# Measured values reported in patent publication US20230278972A1, “SUBSTITUTED HALOALKYL SULFONANILIDE HERBICIDES” (FMC Corporation, priority 2020, published 2023).
# Read-outs that look alike come from different tables or passages of the source.
# Columns and labels:
# Assay type in all cases: in vivo
# [1] = test system: blackgrass (Alopecurus myosuroides); assay: Test A1 preemergence, blackgrass
# Procedure, shortened: (§1)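 Test compounds were formulated in a non-phytotoxic solvent mixture containing a surfactant. For preemergence, seeds sown in a loam soil–sand blend received a directed soil spray. For postemergence, potted plants in the same soil, 2 to 10 cm tall at the one- to two-leaf stage, were sprayed.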
# [2] = test system: galium (catchweed bedstraw, Galium aparine); assay: Test A1 postemergence, galium; settings: Postemergence
# Procedure, shortened: (§2)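 Plants grown in pots of loam/sand mix; preemergence = soil-directed spray on seeded pots, postemergence = spray at 1–2 leaves, height 2–10 cm; test chemicals formulated in non-phytotoxic solvent with surfactant.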
# [3] = test system: kochia (Bassia scoparia); assay: Test A1 preemergence, kochia
# Procedure, shortened: as §1
# [4] = test system: ducksalad (Heteranthera limosa); assay: Test B1 flooded paddy test, ducksalad; settings: 250 g ai/ha, Flood, applied to paddy water, 2-leaf stage, visually evaluated after 10 to 14 days
# Excerpt: A dash (-) response means no test result.
# [5] = test system: Oat, Wild (wild oat, Avena fatua); assay: Test A1 postemergence, Oat, Wild; settings: Postemergence
# Procedure, shortened: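 Plants were grown in a loam soil/sand blend, with test chemicals formulated in a non-phytotoxic solvent mixture containing surfactant. Preemergence treatment (corn) was a directed soil spray at planting. Postemergence treatment was applied to plants 2 to 10 cm tall at the one- to two-leaf stage.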
# [6] = test system: Ryegrass, Italian (Italian ryegrass, Lolium multiflorum); assay: Test A1 postemergence, Ryegrass, Italian; settings: Postemergence
# Procedure, shortened: as §2
# [7] = test system: Foxtail, Giant (giant foxtail, Setaria faberi); assay: Test A postemergence, Foxtail, Giant; settings: Setaria faberi, post-emergence, 240 h, Postemergence, 0 to 100 scale (0 no effect, 100 complete control); for pest or weed control at 125 g/ha: 125 g ai/ha; for pest or weed control at 500 g/ha: 500 g ai/ha
# Procedure, shortened: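 Test chemicals, formulated in a non-phytotoxic solvent mixture with surfactant, were sprayed postemergence on plants 2 to 10 cm tall at the one- to two-leaf stage. Preemergence treatment was a directed soil spray onto freshly seeded pots. Both used a loam soil and sand blend.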
# [8] = 31 g ai/ha, 0 to 100 scale (0 no effect, 100 complete control)
# [9] = 125 g ai/ha, 0 to 100 scale, 0 no effect, 100 complete control
# [10] = 31 g ai/ha, 0 to 100 scale (0 no effect, 100 complete control), 10 days
# [11] = visual injury approx. 10 days, read-out: Plant response rating, Foxtail, Giant
# [12] = visual injury, approx. 10 days, read-out: Plant response rating, Foxtail, Giant
# [13] = visual injury vs untreated controls after approx. 10 days, read-out: Foxtail, Giant plant response rating
# [14] = read-out: Plant response rating, Foxtail, Giant
structure (smiles),measurement,setting,value
"Cc1cc(C)c(N(COC(=O)C(C)(C)C)S(=O)(=O)C(F)(F)F)cc1C1=NOC2CCCCCC12 (single isomer, unassigned) [Compound 294]","Plant response rating, Blackgrass",[1]; [8],10
same,"Plant response rating, Blackgrass",[1]; [9],0
same,"Plant response rating, Galium",[2]; [10],60
same,"Plant response rating, Galium","[2]; 125 g ai/ha, 0 to 100 scale",70
same,"Plant response rating, Kochia",[3]; [8],0
same,"Plant response rating, Kochia",[3]; [9],60
same,"Plant response rating, Ducksalad (0 to 100 scale, 0 is no effect, 100 is complete control)",[4],70
same,"Plant response rating, Oat, Wild",[5]; [10],10
same,"Plant response rating, Oat, Wild","[5]; 125 g ai/ha, 0 to 100 scale",20
same,"Plant response rating, Ryegrass, Italian",[6]; [10],0
same,"Plant response rating, Ryegrass, Italian","[6]; 125 g ai/ha, 0 to 100 scale",40
"Cc1cc(Cl)c(NS(=O)(=O)C(F)(F)F)cc1C(=O)N1CCOCC1 [Compound 16, N-[2-Chloro-4-methyl-5-(4-morpholinylcarbonyl)phenyl]-1,1,1-trifluoromethanesulfonamide]",pest or weed control at 125 g/ha,[7]; [11],40%
same,pest or weed control at 500 g/ha,[7]; [12],90%
"Cc1cc(Cl)c(NS(=O)(=O)C(F)(F)F)cc1C(=O)N1CCCCC1 [Compound 18, N-[2-Chloro-4-methyl-5-(1-piperidinylcarbonyl)phenyl]-1,1,1-trifluoromethanesulfonamide]",pest or weed control at 125 g/ha,[7]; [11],20%
same,pest or weed control at 500 g/ha,[7]; [12],70%
"CCc1cc(-c2cc(NS(=O)(=O)C(F)(F)F)c(C)cc2C)c(=O)n(C)n1 [Compound 34, N-[5-(6-Ethyl-2,3-dihydro-2-methyl-3-oxo-4-pyridazinyl)-2,4-dimethylphenyl]-1,1,1-trifluoromethanesulfonamide]",pest or weed control at 125 g/ha,[7]; [11],0%
same,pest or weed control at 500 g/ha,[7]; [12],0%
"Cc1cc(C)c(N(COC(=O)C(C)(C)C)S(=O)(=O)C(F)(F)F)cc1C1=NO[C@@H]2CCC[C@H]12 [Compound 100, [[2,4-Dimethyl-5-[(3aR,6aR)-3a,5,6,6a-tetrahydro-4H-cyclopent[d]isoxazol-3-yl]phenyl][(trifluoromethyl)sulfonyl]amino]methyl 2,2-dimethylpropanoate]",pest or weed control at 125 g/ha,[7]; [11],10%
same,pest or weed control at 500 g/ha,[7]; [13],40%
"Cc1cc(C)c(C2=NO[C@@H]3CCC[C@H]23)cc1NS(=O)(=O)C(F)(F)F [Compound 103, N-[2,4-Dimethyl-5-[(3aR,6aR)-3a,5,6,6a-tetrahydro-4H-cyclopent[d]isoxazol-3-yl]phenyl]-1,1,1-trifluoromethanesulfonamide]",pest or weed control at 125 g/ha,[7]; [11],30%
same,pest or weed control at 500 g/ha,[7]; [13],70%
"Cc1cc(C)c(C2=NOC3CCOCC23)cc1NS(=O)(=O)C(F)(F)F (stereo not drawn) [Compound 120, N-[2,4-Dimethyl-5-(3a,6,7,7a-tetrahydro-4H-pyrano[3,4-d]isoxazol-3-yl)phenyl]-1,1,1-trifluoromethanesulfonamide]",pest or weed control at 125 g/ha,[7]; [11],40%
same,pest or weed control at 500 g/ha,[7]; [13],90%
"Cc1cc(C)c(C2=NOC3COCCC23)cc1NS(=O)(=O)C(F)(F)F (stereo not drawn) [Compound 121, N-[2,4-Dimethyl-5-(3a,4,7,7a-tetrahydro-5H-pyrano[4,3-d]isoxazol-3-yl)phenyl]-1,1,1-trifluoromethanesulfonamide]",pest or weed control at 125 g/ha,[7]; [11],50%
same,pest or weed control at 500 g/ha,[7]; [13],90%
"Cc1c(NS(=O)(=O)C(F)(F)F)cc(C(=O)N(C)C)c(C)c1F [Compound 128, 3-Fluoro-N,N,2,4-tetramethyl-5-[[(trifluoromethyl)sulfonyl]amino]benzamide]",pest or weed control at 125 g/ha,[7]; [11],10%
same,pest or weed control at 500 g/ha,[7]; [13],50%
"Cc1cc(C)c(N(COC(=O)C(C)(C)C)S(=O)(=O)C(F)(F)F)cc1C1=NOC2(CCCC2)C1 [Compound 140, [[2,4-Dimethyl-5-(1-oxa-2-azaspiro[4.4]non-2-en-3-yl)phenyl][(trifluoromethyl)sulfonyl]amino]methyl 2,2-dimethylpropanoate]",pest or weed control at 125 g/ha,[7]; [11],30%
same,pest or weed control at 500 g/ha,[7]; [13],90%
"Cc1cc(C)c(N(COC(=O)C(C)(C)C)S(=O)(=O)C(F)(F)F)cc1C1=NOC2(CCCCC2)C1 [Compound 159, [[2,4-Dimethyl-5-(1-oxa-2-azaspiro[4.5]dec-2-en-3-yl)phenyl][(trifluoromethyl)sulfonyl]amino]methyl 2,2-dimethylpropanoate]",pest or weed control at 125 g/ha,[7]; [14],0%
same,pest or weed control at 500 g/ha,[7]; [13],30%
"Cc1c(NS(=O)(=O)C(F)(F)F)cc(C(=O)N2CCOCC2)c(C)c1F [Compound 190, 1,1,1-Trifluoro-N-[3-fluoro-2,4-dimethyl-5-(4-morpholinylcarbonyl)phenyl]methanesulfonamide]",pest or weed control at 125 g/ha,[7]; [14],20%
same,pest or weed control at 500 g/ha,[7]; [13],80%
"Cc1cc(C)c(C2=NOC3(CCCCC3)C2)cc1NS(=O)(=O)C(F)(F)F [Compound 197, N-[2,4-Dimethyl-5-(1-oxa-2-azaspiro[4.5]dec-2-en-3-yl)phenyl]-1,1,1-trifluoromethanesulfonamide]",pest or weed control at 125 g/ha,[7]; [14],80%
same,pest or weed control at 500 g/ha,[7]; [13],90%
"Cc1cc(C)c(C2=NOC3(CCCC3)C2)cc1NS(=O)(=O)C(F)(F)F [Compound 207, N-[2,4-Dimethyl-5-(1-oxa-2-azaspiro[4.4]non-2-en-3-yl)phenyl]-1,1,1-trifluoromethanesulfonamide]",pest or weed control at 125 g/ha,[7]; [14],50%
same,pest or weed control at 500 g/ha,[7]; [13],90%
"Cc1cc(Cl)c(NS(=O)(=O)C(F)(F)F)cc1C(=O)N1CCC(F)(F)CC1 [Compound 229, N-[2-Chloro-5-[(4,4-difluoro-1-piperidinyl)carbonyl]-4-methylphenyl]-1,1,1-trifluoromethanesulfonamide]",pest or weed control at 125 g/ha,[7]; [14],50%
same,pest or weed control at 500 g/ha,[7]; [13],90%
"Cc1cc(C)c(C(=O)N2CCC(F)(F)CC2)cc1NS(=O)(=O)C(F)(F)F [Compound 241, N-[5-[(4,4-Difluoro-1-piperidinyl)carbonyl]-2,4-dimethylphenyl]-1,1,1-trifluoromethanesulfonamide]",pest or weed control at 125 g/ha,[7]; [14],0%
same,pest or weed control at 500 g/ha,[7]; [11],30%
Cc1cc(C)c(-n2nccc(C)c2=O)cc1NS(=O)(=O)C(F)(F)F [Compound 281],"Plant response rating, Blackgrass",[1]; [8],0
same,"Plant response rating, Blackgrass",[1]; [9],0
same,"Plant response rating, Galium",[2]; [10],0
same,"Plant response rating, Galium","[2]; 125 g ai/ha, 0 to 100 scale",0
same,"Plant response rating, Kochia",[3]; [8],0
same,"Plant response rating, Kochia",[3]; [9],20
same,"Plant response rating, Ducksalad (0 to 100 scale, 0 is no effect, 100 is complete control)",[4],0
same,"Plant response rating, Oat, Wild",[5]; [10],0
same,"Plant response rating, Oat, Wild","[5]; 125 g ai/ha, 0 to 100 scale",0
same,"Plant response rating, Ryegrass, Italian",[6]; [10],0
same,"Plant response rating, Ryegrass, Italian","[6]; 125 g ai/ha, 0 to 100 scale",0
COc1cnn(-c2cc(NS(=O)(=O)C(F)(F)F)c(C)cc2C)c(=O)c1OC [Compound 282],"Plant response rating, Blackgrass",[1]; [8],30
same,"Plant response rating, Blackgrass",[1]; [9],60
same,"Plant response rating, Galium","[2]; 125 g ai/ha, 0 to 100 scale",0
same,"Plant response rating, Kochia",[3]; [8],0
same,"Plant response rating, Kochia",[3]; [9],80
same,"Plant response rating, Ducksalad (0 to 100 scale, 0 is no effect, 100 is complete control)",[4],65
same,"Plant response rating, Oat, Wild",[5]; [10],0
same,"Plant response rating, Oat, Wild","[5]; 125 g ai/ha, 0 to 100 scale",50
same,"Plant response rating, Ryegrass, Italian",[6]; [10],30
same,"Plant response rating, Ryegrass, Italian","[6]; 125 g ai/ha, 0 to 100 scale",60
Cc1c(NS(=O)(=O)C(F)(F)F)cc(C(=O)N(C)C)c(C)c1Cl [Compound 287],"Plant response rating, Blackgrass",[1]; [8],0
same,"Plant response rating, Blackgrass",[1]; [9],30
same,"Plant response rating, Galium",[2]; [10],0
same,"Plant response rating, Galium","[2]; 125 g ai/ha, 0 to 100 scale",0
same,"Plant response rating, Kochia",[3]; [8],20
same,"Plant response rating, Kochia",[3]; [9],60
same,"Plant response rating, Ducksalad (0 to 100 scale, 0 is no effect, 100 is complete control)",[4],75
same,"Plant response rating, Oat, Wild",[5]; [10],0
same,"Plant response rating, Oat, Wild","[5]; 125 g ai/ha, 0 to 100 scale",0
same,"Plant response rating, Ryegrass, Italian",[6]; [10],0
same,"Plant response rating, Ryegrass, Italian","[6]; 125 g ai/ha, 0 to 100 scale",60
Cc1c(NS(=O)(=O)C(F)(F)F)cc(C(=O)N(C)C)c(C)c1C [Compound 288],"Plant response rating, Blackgrass",[1]; [8],0
same,"Plant response rating, Blackgrass",[1]; [9],0
same,"Plant response rating, Galium",[2]; [10],0
same,"Plant response rating, Galium","[2]; 125 g ai/ha, 0 to 100 scale",0
same,"Plant response rating, Kochia",[3]; [8],0
same,"Plant response rating, Kochia",[3]; [9],40
same,"Plant response rating, Ducksalad (0 to 100 scale, 0 is no effect, 100 is complete control)",[4],60
same,"Plant response rating, Oat, Wild",[5]; [10],0
same,"Plant response rating, Oat, Wild","[5]; 125 g ai/ha, 0 to 100 scale",0
same,"Plant response rating, Ryegrass, Italian",[6]; [10],0
same,"Plant response rating, Ryegrass, Italian","[6]; 125 g ai/ha, 0 to 100 scale",0
